From patent US7893077B2, “Bisaryl-sulfonamides” (Amgen Inc., priority 2004, dated 2011) come the findings set out here.

The target in this test is T1, PPARγ (Homo sapiens, UniProt P37231).
T1 construct: made in house
T1 sequence (P37231 1-505): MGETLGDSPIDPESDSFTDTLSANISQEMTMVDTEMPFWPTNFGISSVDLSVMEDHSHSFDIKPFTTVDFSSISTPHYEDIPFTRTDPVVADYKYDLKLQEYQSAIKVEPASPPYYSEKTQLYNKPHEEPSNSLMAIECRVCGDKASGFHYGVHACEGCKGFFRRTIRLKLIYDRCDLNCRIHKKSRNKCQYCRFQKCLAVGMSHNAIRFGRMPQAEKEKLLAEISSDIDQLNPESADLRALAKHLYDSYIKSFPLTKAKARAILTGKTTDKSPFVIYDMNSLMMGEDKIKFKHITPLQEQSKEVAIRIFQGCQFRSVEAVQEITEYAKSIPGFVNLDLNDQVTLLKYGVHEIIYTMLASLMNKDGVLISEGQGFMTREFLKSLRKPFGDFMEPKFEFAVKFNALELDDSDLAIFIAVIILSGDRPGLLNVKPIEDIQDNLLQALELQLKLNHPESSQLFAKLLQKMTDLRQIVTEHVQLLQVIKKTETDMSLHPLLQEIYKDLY
Briefly: PPARγ ligand binding assay utilizing [3H]-BRL 49653 as the radioligand (filtration). The conditions noted are these: concentration required to reduce by 50% the specific binding of [3H]-BRL 49653. The source says:
The compounds of the present invention can be evaluated for modulation of the PPARγ receptor using assays such as those described in Jiang, et al., Nature 391:82-86 (1998), Ricote, et al., Nature 391:79-82 (1998) and Lehmann, et al., J. Biol. Chem. 270(12): 12953-12956 (1995). Alternatively, the compounds can be evaluated for their ability to displace radiolabeled BRL 49653 from a PPARγ-GST fusion protein as follows:
PPARγ-GST fusion protein (prepared according to standard procedures), [^3H]-BRL 49653 having 50 Ci/mmol specific activity, Polyfiltronics Unifilter 350 filtration plate and glutathione-Sepharose® beads (from Pharmacia: washed twice with 10× binding buffer in which BSA and DTI can be left out).
Binding buffer (10 mM Tris-HCl, pH 8.0, 50 mM KCl, 10 mM DTT, 0.02% BSA and 0.0 1% NP-40) is added in 80-μL amounts to the wells of the filtration plate. The test compound is then added in 10 μL of DMSO. The PPARγ-GST fusion protein and radiolabeled BRL compound are premixed in binding buffer containing 10 mM DTT and added in 10-μL amounts to the wells of the plate to provide final concentrations of 1 µg/well of PPARγ-GST fusion protein and 10 nM [^3H]-BRL 49653 compound. The plate is incubated for 15 min. Glutathione-agarose bead is added in 50 μL of binding buffer, and the plate is vigorously shaken for one hour. The plate is washed four times with 200 μL/well of binding buffer (without BSA and DTT). The bottom of the plate is sealed and 200 μL/well of scintillation cocktail is added. The top of the plate is then sealed and the radioactivity is determined.
IC50 values are defined as the concentration of test compounds required to reduce by 50% the specific binding of [^3H]-BRL 49653 and are represented by (+)<30 μM; (++)<10 μM; (+++)<1 μM.

pIC50: −log10 of the molar value.

What is called pIC50 is the IC50 on a negative log10 scale, so that one unit is a factor of ten. Read a low pIC50 as a large IC50. The molecule `CCCC(=O)c1nc(NS(=O)(=O)c2ccc(Cl)cc2Cl)ccc1Sc1ccc(S(=O)(=O)N2CCCCC2)cc1` [Compound 73, N-{6-Butyryl-5-[4-(piperidine-1-sulfonyl)-phenylsulfanyl]-pyridin-2-yl}-2,4-dichloro-benzenesulfonamide] had a pIC50 above 6.00.
For the molecule `Cc1cc(NS(=O)(=O)c2ccc(C(F)(F)F)cc2Cl)ncc1Sc1ccc(S(=O)(=O)N2CCOCC2)cc1` [Compound 74, 2-Chloro-N-{4-methyl-5-[4-(morpholine-4-sulfonyl) -phenylsulfanyl]-pyridin-2-yl}-4-trifluoromethyl-benzenesulfonamide], the negative-log IC50 (pIC50) was above 6.00.
Then `Cc1cc(NS(=O)(=O)c2ccc(Cl)cc2Cl)ncc1Sc1ccc(S(=O)(=O)N2CCOCC2)cc1` [Compound 75, 2,4-Dichloro-N-{4-methyl-5-[4-(morpholine-4-sulfonyl) -phenylsulfanyl]-pyridin-2-yl}-benzenesulfonamide], with above 6.00.
The molecule `COC(=O)c1nc(NS(=O)(=O)c2ccc(Cl)cc2Cl)ccc1Sc1ccc(S(=O)(=O)N2CCOCC2)cc1` [Compound 76, 6-(2,4-Dichloro-benzenesulfonylamino)-3-[4-(morpholine-4-sulfonyl)-phenylsulfanyl]-pyridine-2-carboxylic acid methyl ester] had a pIC50 above 6.00.
The molecule `Cc1nc(NS(=O)(=O)c2ccc(Cl)cc2Cl)ccc1Sc1ccc(S(=O)(=O)N2CCOCC2)cc1` [Compound 77, 2,4-Dichloro-N-{6-methyl-5-[4-(morpholine-4-sulfonyl) -phenylsulfanyl]-pyridin-2-yl}-benzenesulfonamide] had a pIC50 above 6.00.
`CCCC(=O)c1nc(NS(=O)(=O)c2ccc(Cl)cc2Cl)ccc1Sc1ccc(S(=O)(=O)N2CCOCC2)cc1` [Compound 78, N-{6-Butyryl-5-[4-(morpholine-4-sulfonyl)-phenylsulfanyl]-pyridin-2-yl}-2,4-dichloro-benzenesulfonamide] showed a pIC50 above 6.00.
In the case of `O=C(c1nc(NS(=O)(=O)c2ccc(Cl)cc2Cl)ccc1Sc1ccc(S(=O)(=O)N2CCOCC2)cc1)C1CC1` [Compound 79, 2,4-Dichloro-N-{6-cyclopropanecarbonyl-5-[4-(morpholine-4-sulfonyl)-phenylsulfanyl]-pyridin-2-yl}-benzenesulfonamide], the pIC50 is above 6.00.
In turn, `CC(C)CC(=O)c1nc(NS(=O)(=O)c2ccc(Cl)cc2Cl)ccc1Sc1ccc(S(=O)(=O)N2CCOCC2)cc1` [Compound 80, 2,4-Dichloro-N-{6-(3-methyl-butyryl)-5-[4-(morpholine-4-sulfonyl)-phenylsulfanyl]-pyridin-2-yl}-benzenesulfonamide] showed a pIC50 above 6.00.
Molecule `CCCC(=O)c1nc(NS(=O)(=O)c2ccc(C(F)(F)F)cc2Cl)ccc1Sc1ccc(S(=O)(=O)N2CCCCC2)cc1` [Compound 81, N-{6-Butyryl-5-[4-(piperidine-1-sulfonyl)-phenylsulfanyl]-pyridin-2-yl}-2-chloro-4-trifluoromethyl-benzenesulfonamide] had a pIC50 above 6.00.
For the molecule `O=C(c1nc(NS(=O)(=O)c2ccc(Cl)cc2Cl)ccc1Sc1ccc(S(=O)(=O)N2CCCCC2)cc1)C1CC1` [Compound 82, 2,4-Dichloro-N-{6-cyclopropanecarbonyl-5-[4-(piperidine-1-sulfonyl)-phenylsulfanyl]-pyridin-2-yl}-benzenesulfonamide], the pIC50 was above 6.00.
Then `CC(C)CC(=O)c1nc(NS(=O)(=O)c2ccc(Cl)cc2Cl)ccc1Sc1ccc(S(=O)(=O)N2CCCCC2)cc1` [Compound 83, 2,4-Dichloro-N-{6-(3-methyl-butyryl)-5-[4-(piperidine-1-sulfonyl)-phenylsulfanyl]-pyridin-2-yl}-benzenesulfonamide], with above 6.00.
Turning to `CCC(=O)c1nc(NS(=O)(=O)c2ccc(Cl)cc2Cl)ccc1Sc1ccc(S(=O)(=O)N2CCCCC2)cc1` [Compound 84, 2,4-Dichloro-N-{5-[4-(piperidine-1-sulfonyl)-phenylsulfanyl]-6-propionyl-pyridin-2-yl}-benzenesulfonamide], the pIC50 was above 6.00.
As to `CC(C)NC(=O)c1nc(NS(=O)(=O)c2ccc(Cl)cc2Cl)ccc1Sc1ccc(S(=O)(=O)N2CCCCC2)cc1` [Compound 85, 6-(2,4-Dichloro-benzenesulfonylamino)-3-[4-(piperidine-1-sulfonyl)-phenylsulfanyl]-pyridine-2-carboxylic acid isopropylamide], the pIC50 was above 6.00.
As for `CCC(=O)c1nc(NS(=O)(=O)c2ccc(Cl)cc2Cl)ccc1Sc1ccc(S(=O)(=O)N2CCOCC2)cc1` [Compound 86, 2,4-Dichloro-N-{5-[4-(morpholine-4-sulfonyl)-phenylsulfanyl]-6-propionyl-pyridin-2-yl}-benzenesulfonamide], the negative-log IC50 (pIC50) is above 6.00.
The molecule `CCCC(=O)c1nc(NS(=O)(=O)c2ccc(C(F)(F)F)cc2Cl)ccc1Sc1ccc(S(=O)(=O)N2CCOCC2)cc1` [Compound 87, N-{6-Butyryl-5-[4-(morpholine-4-sulfonyl)-phenylsulfanyl]-pyridin-2-yl}-2-chloro-4-trifluoromethyl-benzenesulfonamide] gave a pIC50 above 6.00.
Turning to `O=C(c1nc(NS(=O)(=O)c2ccc(C(F)(F)F)cc2Cl)ccc1Sc1ccc(S(=O)(=O)N2CCOCC2)cc1)C1CC1` [Compound 88, 2-Chloro-N-{6-cyclopropanecarbonyl-5-[4-(morpholine-4-sulfonyl)-phenylsulfanyl]-pyridin-2-yl}-4-trifluoromethyl-benzenesulfonamide], the pIC50 was above 6.00.
The molecule `O=C(c1nc(NS(=O)(=O)c2ccc(C(F)(F)F)cc2Cl)ccc1Sc1ccc(S(=O)(=O)N2CCCCC2)cc1)C1CC1` [Compound 89, 2-Chloro-N-{6-cyclopropanecarbonyl-5-[4-(piperidine-1-sulfonyl)-phenylsulfanyl]-pyridin-2-yl}-4-trifluoromethyl-benzenesulfonamide] had a pIC50 above 6.00.
`CCCC(=O)c1nc(NS(=O)(=O)c2ccc(Cl)cc2Cl)ccc1Sc1ccc(S(=O)(=O)N2CCCC2)cc1` [Compound 94, N-{6-Butyryl-5-[4-(pyrrolidine-1-sulfonyl)-phenylsulfanyl]-pyridin-2-yl}-2,4-dichloro-benzenesulfonamide] gave a negative-log IC50 (pIC50) above 6.00.
`O=C(c1nc(NS(=O)(=O)c2ccc(Cl)cc2Cl)ccc1Sc1ccc(S(=O)(=O)N2CCCC2)cc1)C1CC1` [Compound 95, 2,4-Dichloro-N-{6-cyclopropanecarbonyl-5-[4-(pyrrolidine-1-sulfonyl)-phenylsulfanyl]-pyridin-2-yl}-benzenesulfonamide] had a negative-log IC50 (pIC50) above 6.00.
`CCC(=O)c1nc(NS(=O)(=O)c2ccc(Cl)cc2Cl)ccc1Sc1ccc(S(=O)(=O)N2CCCC2)cc1` [Compound 96, 2,4-Dichloro-N-{6-propionyl-5-[4-(pyrrolidine-1-sulfonyl) -phenylsulfanyl]-pyridin-2-yl}-benzenesulfonamide] gave a pIC50 above 6.00.
For `CCCC(=O)c1nc(NS(=O)(=O)c2ccc(C(F)(F)F)cc2Cl)ccc1Sc1ccc(S(=O)(=O)N2CCCC2)cc1` [Compound 97, N-{6-Butyryl-5-[4-(pyrrolidine-1-sulfonyl)-phenylsulfanyl]-pyridin-2-yl}-2-chloro-4-trifluoromethyl-benzenesulfonamide], the pIC50 is above 6.00.
For `O=C(c1nc(NS(=O)(=O)c2ccc(C(F)(F)F)cc2Cl)ccc1Sc1ccc(S(=O)(=O)N2CCCC2)cc1)C1CC1` [Compound 98, 2-Chloro-N-{6-cyclopropanecarbonyl-5-[4-(pyrrolidine-1-sulfonyl)-phenylsulfanyl]-pyridin-2-yl}-4-trifluoromethyl-benzenesulfonamide], the pIC50 was above 6.00.
For `CCCC(=O)c1nc(NS(=O)(=O)c2ccc(C(F)(F)F)cc2Cl)ccc1Sc1ccc(S(=O)(=O)N(CC)CC)cc1` [Compound 99, N-[6-Butyryl-5-(4-diethylsulfamoyl-phenylsulfanyl)-pyridin-2-yl]-2-chloro-4-trifluoromethyl-benzenesulfonamide] the value was above 6.00.
